Assay results taken from the supplement of paper PMC3937590.

Key:
Experiment in all cases: -log10 GI50 (growth inhibition 50%) (-log10(M)); higher = more potent growth inhibition
[1] = system: BT549
Procedure, shortened: (§1)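 The reported figure is the negative logarithm of GI50, defined as the molar concentration that produces the set level of growth inhibition. The logarithm is base 10. It comes from a Gompertz curve fitted by nonlinear least squares to 72-hour luminescence data from breast cancer cell lines given nine doses in 1:5 serial dilution, in triplicate, with a time-zero plate as reference. A < qualifier marks values equal to the top dose.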

[2] = system: SUM159PT
Procedure, shortened: as §1

[3] = system: HCC1937
Procedure, shortened: as §1

[4] = system: HCC1419
Procedure, shortened: as §1

[5] = system: SUM229PE
Procedure, shortened: as §1

[6] = system: HCC1143
Procedure, shortened: as §1

[7] = system: 600MPE
Procedure, shortened: as §1

[8] = system: HCC1569
Procedure, shortened: as §1

[9] = system: MDAMB134VI
Procedure, shortened: as §1

[10] = system: ZR75B
Procedure, shortened: as §1

[11] = system: HCC1806
Procedure, shortened: as §1

[12] = system: AU565
Procedure, shortened: as §1

[13] = system: MDAMB157
Procedure, shortened: as §1

[14] = system: MDAMB231
Procedure, shortened: as §1

[15] = system: MDAMB361
Procedure, shortened: as §1

[16] = system: HCC1428
Procedure, shortened: as §1

[17] = system: HCC38
Procedure, shortened: as §1

[18] = system: HCC1954
Procedure, shortened: as §1

[19] = system: T47D_KBluc
Procedure, shortened: as §1

Structure (SMILES)	-log10 GI50 [1]	-log10 GI50 [3]	-log10 GI50 [4]	-log10 GI50 [6]	-log10 GI50 [8]	-log10 GI50 [9]	-log10 GI50 [11]	-log10 GI50 [13]	-log10 GI50 [14]	-log10 GI50 [15]	-log10 GI50 [16]	-log10 GI50 [17]	-log10 GI50 [18]	-log10 GI50 [19]	-log10 GI50 [2]	-log10 GI50 [5]	-log10 GI50 [7]	-log10 GI50 [10]	-log10 GI50 [12]
CC(=O)Nc1cccc(-n2c(=O)n(C3CC3)c(=O)c3c(Nc4ccc(I)cc4F)n(C)c(=O)c(C)c32)c1	5.55	< 4.78	7.23	< 4.78	< 4.78	8.33	6.39	6.57	6.86	< 4.78	< 4.78	< 4.78	6.79	–	7.93	8.17	8.17	< 4.78	5.01
CC(C)Oc1ccc(C(=O)N[C@H](CNC(=O)CN(C)C)Cc2ccc(-c3cn4cccc([C@H](C)O)c4n3)cc2)cc1Cl	7.3	7.36	5.72	6.98	6.59	6.52	7.34	7.48	5.91	7.43	5.99	7.32	7.6	–	7.43	7.42	< 4.48	7.18	7.62
CCNCCCNC/C=C\CNCCCNCC	4.73	5.24	4.85	4.05	3.71	2.97	3.88	2.96	4.75	3.15	3.74	5.26	6.52	–	4.03	4.33	3.68	3.61	3.33
CCn1cc(-c2ccnc3[nH]c(-c4cccc(CN(C)C)c4)cc23)c(-c2ccc(NC(=O)N(C)C)cc2)n1	5.71	5.73	5.18	5.52	6.17	5.59	5.16	6.23	5.47	5.22	5.69	6.53	5.57	–	5.77	6.33	5.1	5.85	5.52
C[C@@H](Oc1cc(-n2cnc3ccc(CN4CCN(C)CC4)cc32)sc1C(N)=O)c1ccccc1C(F)(F)F	7.48	7.5	5.13	7.17	7.05	7.83	7.95	8.02	7.75	8.72	5.33	–	8.16	–	7.49	7.68	5.16	7.06	8.58
O=C1NC(=O)/C(=C/c2ccc3nccc(-c4ccncc4)c3c2)S1	5.73	6.09	6.59	6.24	5.94	6.33	5.82	6.17	5.21	5.92	6.28	6.11	6.68	–	6.72	6.26	6.31	6.51	6.32
C=CCNC1=C2C[C@@H](C)C[C@H](OC)[C@H](O)[C@@H](C)/C=C(\C)[C@H](OC(N)=O)[C@@H](OC)/C=C\C=C(/C)C(=O)NC(=CC1=O)C2=O [17-AAG]	7.51	6.88	7.41	6.86	6.84	7.42	7.05	–	6.11	7.29	8.39	7.24	7.5	–	7.46	7.56	6.65	7.27	7.24
COc1cc2ncnc(Nc3cccc(Cl)c3)c2cc1OC [AG1478]	4.33	4.89	5.92	< 3.78	5.26	4.32	4.63	4.48	< 3.78	4.82	< 3.78	3.9	5.64	–	4.76	< 3.78	4.11	< 3.78	4.79
CCc1c2c(nc3ccc(OC(=O)N4CCC(N5CCCCC5)CC4)cc13)-c1cc3c(c(=O)n1C2)COC(=O)[C@]3(O)CC [CPT-11]	5.47	5.14	4.62	4.88	4.62	4.94	5.81	5.43	5.06	5.25	4.64	6.14	4.72	–	5.37	5.16	4.71	5.82	5.83
O=C(O)C1(C(=O)O)CCC1.[NH2-].[NH2-].[Pt+2] [Carboplatin]	4.61	4.47	4.02	3.88	3.96	3.66	4.81	4.07	4.09	4.34	3.86	4.76	4.42	–	4.55	4.27	3.82	3.52	4.95
N.N.[Cl][Pt][Cl] [Cisplatin]	5.6	5.48	4.91	5.04	5.11	3.73	5.68	4.62	4.65	5.06	4.33	5.78	5.29	–	5.4	5.26	4.33	4.06	5.72
CCN(CC)C(=S)SSC(=S)N(CC)CC [Disulfiram]	6.89	6.89	< 4.18	6.95	< 4.18	5.88	–	7.22	5.85	6.56	4.97	5.96	< 4.18	7	6.65	4.5	7.1	–	6.84
CC(=O)O[C@@]12CO[C@@H]1C[C@H](O)[C@@]1(C)C(=O)[C@H](O)C3=C(C)[C@@H](OC(=O)[C@H](O)[C@@H](NC(=O)OC(C)(C)C)c4ccccc4)C[C@@](O)([C@@H](OC(=O)c4ccccc4)[C@H]21)C3(C)C [Docetaxel]	8.46	–	7.8	8.06	8.12	7.81	8.62	8.76	8.66	7.92	7.77	8.69	8.78	7.93	8.77	7.94	7.61	8.03	8.3
COc1cccc2c1C(=O)c1c(O)c3c(c(O)c1C2=O)C[C@@](O)(C(=O)CO)C[C@@H]3O[C@H]1C[C@H](N)[C@H](O)[C@H](C)O1 [Doxorubicin]	6.94	6.49	6.33	6.6	5.59	5.95	6.79	6.49	6.44	6.63	5.92	7.14	6.74	–	6.77	6.72	6.69	6.67	7.03
COc1cccc2c1C(=O)c1c(O)c3c(c(O)c1C2=O)C[C@@](O)(C(=O)CO)C[C@@H]3O[C@H]1C[C@H](N)[C@@H](O)[C@H](C)O1 [Epirubicin]	6.7	6.69	6.15	6.58	6.06	5.98	6.78	6.31	6.57	6.65	5.88	7.07	6.7	–	6.86	6.62	–	6.94	6.84
O=c1[nH]cc(F)c(=O)[nH]1 [Fluorouracil]	4.01	3.66	3.77	3.76	3.96	2.66	4.61	3.11	3.75	3.98	4.99	3.72	4.79	–	4.68	4.08	4.11	4.95	4.69

Continued, in another order:

-log10 GI50 [1]	-log10 GI50 [3]	-log10 GI50 [4]	-log10 GI50 [6]	-log10 GI50 [8]	-log10 GI50 [9]	-log10 GI50 [11]	-log10 GI50 [13]	-log10 GI50 [14]	-log10 GI50 [15]	-log10 GI50 [16]	-log10 GI50 [17]	-log10 GI50 [18]	-log10 GI50 [19]	Structure (SMILES)	-log10 GI50 [2]	-log10 GI50 [5]	-log10 GI50 [7]	-log10 GI50 [10]	-log10 GI50 [12]
4.86	5.08	5.5	4.93	5.19	4.72	5.31	4.92	< 4.48	5.03	4.97	4.75	5.92	–	COc1cc2ncnc(Nc3ccc(F)c(Cl)c3)c2cc1OCCCN1CCOCC1 [Gefitinib]	5.07	5.21	5.21	4.67	5.97
8.22	7.49	7.49	7.1	7.47	7.8	7.12	7.71	7.65	7.78	7.55	7.56	8.14	–	COC1=C2C[C@@H](C)C[C@H](OC)[C@H](O)[C@@H](C)/C=C(\C)[C@H](OC(N)=O)[C@@H](OC)/C=C\C=C(/C)C(=O)NC(=CC1=O)C2=O [Geldanamycin]	8.21	7.91	7.43	7.05	7.35
8.08	5.97	4.81	7.92	6.76	2.85	8.72	–	5.93	–	3.58	8.17	4.51	–	Nc1ccn([C@@H]2O[C@H](CO)[C@@H](O)C2(F)F)c(=O)n1 [Gemcitabine]	7.99	7.3	7.64	7.34	7.81
6.3	4.9	4.72	6.01	5.31	–	6.5	6.3	6.46	6.24	< 4.18	6.48	6.82	4.58	COC(=O)Nc1nc2cc(C(=O)c3ccccc3)ccc2[nH]1 [Mebendazole]	6.69	5.68	5	6.81	6.96
5.81	5.1	–	4.7	5.35	3.54	5.45	4.8	4.9	5.46	5.09	–	5.95	–	O=C(O)C(=O)O.[NH-][C@@H]1CCCC[C@H]1[NH-].[Pt+2] [Oxaliplatin]	5.6	5.72	–	5.52	–
< 3.78	< 3.78	< 3.78	4.28	< 3.78	6.78	4.31	4.09	< 3.78	< 3.78	5.49	4.28	4.54	–	CC/C(=C(\c1ccccc1)c1ccc(OCCN(C)C)cc1)c1ccccc1 [Tamoxifen]	3.93	5.62	4.35	–	4.05
7.62	–	6.45	6.58	5.8	6.94	7.69	6.4	5.67	6.03	6.35	8.61	6.55	–	CC[C@@]1(O)C(=O)OCc2c1cc1n(c2=O)Cc2cc3c(CN(C)C)c(O)ccc3nc2-1 [Topotecan]	6.65	7.2	–	7.26	7.73
8.02	6.65	6.45	6.49	6.42	7.95	7.97	7.89	8.39	9	5.66	7.94	6.24	–	CCC1=C[C@@H]2CN(C1)Cc1c([nH]c3ccccc13)[C@@](C(=O)OC)(c1cc3c(cc1OC)N(C)[C@H]1[C@@](O)(C(=O)OC)[C@H](OC(C)=O)[C@]4(CC)C=CCN5CC[C@]31[C@@H]54)C2 [Vinorelbine]	7.91	8.68	5.97	8.05	8.24
